Values quoted from earlier work, collected in US20250195486A1 (Closed Loop Medicine Ltd., priority 2023, published 2025).
“Also recorded” adds a separate entry of the source. Like-named read-outs stand apart in the source and are kept apart here. One block for each molecule: values may come before it.

Assays:
[1] = molecular target: P-gp (Homo sapiens, UniProt P08183)
[2] = Niebecker et al. (2015)
[3] = not given; remark: listed apart in the source
[4] = Salazar et al. (2012)
[5] = system: patients with NVAF; details: patient with normal renal function
[6] = system: patients with NVAF; details: 12 weeks
[7] = population mean; Song et al. (2014), Phases I and II
[8] = Yin et al. (2014)
[9] = system: patients with AF; details: atrial fibrillation
[10] = population mean, Phases I and III
[11] = normally distributed, mean 0, Krekels et al. (2016) model
[12] = population mean, Krekels et al. (2016), Phases I and III
[13] = population mean, Phases I and II
[14] = population mean, Phases I, II and III

Sequence of P-gp (P08183 whole entry): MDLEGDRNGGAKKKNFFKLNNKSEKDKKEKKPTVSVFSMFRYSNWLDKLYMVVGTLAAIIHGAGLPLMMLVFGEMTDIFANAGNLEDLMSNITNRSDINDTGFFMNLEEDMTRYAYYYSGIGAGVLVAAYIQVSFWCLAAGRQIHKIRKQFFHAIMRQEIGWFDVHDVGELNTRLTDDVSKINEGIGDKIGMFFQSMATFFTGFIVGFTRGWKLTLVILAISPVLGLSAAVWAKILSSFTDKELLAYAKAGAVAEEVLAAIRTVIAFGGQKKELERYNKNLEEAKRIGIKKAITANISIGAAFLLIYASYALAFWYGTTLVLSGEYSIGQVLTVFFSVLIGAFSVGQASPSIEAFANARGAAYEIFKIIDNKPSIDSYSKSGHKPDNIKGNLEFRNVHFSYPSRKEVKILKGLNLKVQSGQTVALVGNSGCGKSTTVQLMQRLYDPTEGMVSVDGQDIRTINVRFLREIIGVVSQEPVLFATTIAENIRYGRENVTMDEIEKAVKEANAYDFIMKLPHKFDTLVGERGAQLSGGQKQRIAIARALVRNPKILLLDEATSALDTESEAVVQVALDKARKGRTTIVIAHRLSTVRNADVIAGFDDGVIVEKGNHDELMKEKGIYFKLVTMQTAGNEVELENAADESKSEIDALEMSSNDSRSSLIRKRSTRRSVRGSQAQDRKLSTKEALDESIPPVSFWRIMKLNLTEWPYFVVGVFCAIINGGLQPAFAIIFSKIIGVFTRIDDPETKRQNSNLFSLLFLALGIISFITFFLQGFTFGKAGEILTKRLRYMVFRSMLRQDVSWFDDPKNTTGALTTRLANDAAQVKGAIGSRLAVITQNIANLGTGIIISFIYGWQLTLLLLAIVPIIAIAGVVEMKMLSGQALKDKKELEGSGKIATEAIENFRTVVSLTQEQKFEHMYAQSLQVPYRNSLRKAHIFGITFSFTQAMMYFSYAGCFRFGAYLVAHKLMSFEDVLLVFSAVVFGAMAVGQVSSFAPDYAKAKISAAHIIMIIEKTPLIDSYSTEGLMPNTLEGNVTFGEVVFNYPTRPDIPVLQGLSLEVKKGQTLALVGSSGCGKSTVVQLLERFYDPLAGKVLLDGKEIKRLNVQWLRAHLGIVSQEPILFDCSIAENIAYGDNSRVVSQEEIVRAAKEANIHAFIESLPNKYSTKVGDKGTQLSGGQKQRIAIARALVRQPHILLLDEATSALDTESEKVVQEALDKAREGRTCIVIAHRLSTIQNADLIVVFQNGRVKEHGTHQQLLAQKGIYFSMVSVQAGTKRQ

Metabolism (extent) (by CES1, CYP3A4 and glucuronidation): < 30%
time of peak plasma concentrations (following oral administration): 1 to 2 h
time of peak levels (immediate-release doses, taken without food): 1 to 2 h
time of peak levels with food (immediate-release doses, with food vs without food): an hour later
Renal clearance as share of total body clearance (in vivo): ~50%
accumulation upon repeat dosing (in vivo): minimal accumulation
effect of food on rate of absorption (in vivo): decreases the rate of absorption
effect of food on total exposure (in vivo): does not affect
increase of total systemic exposure (AUC∞) (moderate or severe renal impairment vs normal renal function): almost two-fold
bioavailability (oral): approximately 62%
terminal half-life (oral administration): 10 to 14 h
dose linearity of pharmacokinetics (over the therapeutic range of doses): linear
unchanged drug found in the faeces (partly due to biliary elimination): 30-50%
P-gp substrate status [1]: substrate of P-gp
Significant covariates: CRCL (PK parameters influenced) [2]: CL/F
Significant covariates: P-gp inhibition (PK parameters influenced) [2]: CL/F, F
Significant covariates: Race (PK parameters influenced) [2]: Vc/F
CL/F (CLNR/F) ([2]; non-renal clearance, population mean, Phases I and III): 15.5 L/h
Ka [2, 10]: 3.35 h⁻¹
Lag time [2, 10]: 0.25 h
Q/F [2, 10]: 5.92 L/h
Vc/F [2, 10]: 209 L
Vp/F [2, 10]: 92.3 L
Significant covariates: CRCL (PK parameters influenced) ([3]; Krekels et al. (2016)): CL/F
CL/F (CLNR/F) ([3]; non-renal clearance, population mean, Krekels et al. (2016), Phases I and III): 13.8 L/h
variance of ηCL/F (between-subject variability) [3, 11]: 0.0185
variance of ηQ/F (between-subject variability) [3, 11]: 0.2285
variance of ηVc/F (between-subject variability) [3, 11]: 0.04623
variance of ηVp/F (between-subject variability) [3, 11]: 0.2285
Ka [3, 12]: 2.16 h⁻¹
Lag time [3, 12]: 0.25 h
Q/F [3, 12]: 5.75 L/h
Vc/F [3, 12]: 194 L
Vp/F [3, 12]: 88.6 L
Significant covariates: CRCL (PK parameters influenced) [4]: CL/F
Significant covariates: Food (PK parameters influenced) [4]: Ka
Significant covariates: P-gp inhibition (PK parameters influenced) [4]: CL/F, Ka, F
Significant covariates: Patient status (PK parameters influenced) [4]: Vc/F
CL/F [4, 13]: 36 L/h
F [4, 13]: 1
Ka [4, 13]: 5.87 h⁻¹
Lag time [4, 13]: 0.42 h
Q/F [4, 13]: 6.42 L/h
Vc/F [4, 13]: 244 L
Vp/F [4, 13]: 90.3 L
trough edoxaban level required to reduce the risk of a major bleeding event below 2% [5]: < 30 ng/mL
trough edoxaban level required to reduce the risk of a major bleeding event below […] [5]: < 40 ng/mL
risk of bleeding, 30 mg twice-daily vs 60 mg once-daily [6]: greater
CL/F [7]: 32.1 L/h
Ka [7]: 3.54 h⁻¹
Lag time [7]: 0.39 h
Q/F [7]: 8.85 L/h
Vc/F [7]: 214 L
Vp/F [7]: 134 L
Significant covariates: Age (PK parameters influenced) [8]: CL/F, Ka
Significant covariates: CRCL (PK parameters influenced) [8]: CL/F
Significant covariates: P-gp inhibition (PK parameters influenced) [8]: Vc/F, Ka, F
CL/F [8, 14]: 11.4 L/h
F [8, 14]: 0.58
Ka [8, 14]: 1.08 h⁻¹
Lag time [8, 14]: 0.25 h
Q/F [8, 14]: 2.73 L/h
Vc/F [8, 14]: 151 L
Vp/F [8, 14]: 42.9 L
SMILES: CN1CCc2nc(C(=O)N[C@@H]3C[C@@H](C(=O)N(C)C)CC[C@@H]3NC(=O)C(=O)Nc3ccc(Cl)cn3)sc2C1 [edoxaban]
Significant covariates: Body weight (PK parameters influenced) [2]: CLNR/F, Q/F,; also recorded: Vc/F, Vp/F
Significant covariates: Body weight (PK parameters influenced) [4]: Vc/F
Significant covariates: Body weight (PK parameters influenced) [8]: CL/F, Vc/F

SMILES: CC(=O)CC(c1ccccc1)c1c(O)c2ccccc2oc1=O (centres unmarked) [warfarin]
reduction of stroke [9]: about 60%
